# Structures can show the parent of a compound that is named as a salt.
# System: MOLM-13 (MLL-AF9) cells
# Experiment: Combination proliferation assay with Compound A2 (CellTiter-Glo, Chou-Talalay CI)
# Format: cell-based, human
# Details: MOLM13; 7 Day Cotreatment Model
# Procedure: (§1) The acute myelogenous leukemia cell lines MV4-11 (MLL-AF4) and MOLM-13 (MLL-AF9) were obtained from American Type Culture Collection (ATCC; Rockville, Md.) and Deutsche Sammlung von Mikroorganismen and Zellkulturen (DSMZ; Braunschweig, Germany) respectively.
# (§2) Studies were performed using MLL-rearranged cell lines in vitro to evaluate the anti-proliferative effect of a combination of two agents together on cell growth. Initial proliferation studies were performed to determine the IC50 of a given compound in each cell line. The cell counts were measured by ATP quantitation using the Promega Cell Titer Glo kit and luminescence values corresponded to the amount of ATP in a given well.
# (§3) Compounds were evaluated for synergy in the co-treatment phase by testing the compounds in a concentration range which was bracketed around their IC50 values. The compounds were plated to a 96 well plate in a matrix format (FIG. 3) which includes increasing concentrations of each drug in the combination in a constant ratio, in addition to the effect of each compound alone in the study. Cells were seeded and grown in the log-linear phase for 3 or 7 days in the co-treatment phase. Minimum inhibition (DMSO alone) controls were used in each plate to calculate fraction affected (Fa) of a test well. DMSO concentration was kept at 0.1% v/v.
# (§4) The drug combination analysis was performed utilizing the Chou-Talalay method Synergy was determined using the software package Calcusyn by Biosoft. The combination index (CI) is a quantitative term used to describe the level of synergy or antagonism in a given test system. A combination index less than one indicates synergy, and a CI greater than one indicates antagonism. Further, strong synergism is achieved when the CI value falls below 0.3.
# (§5) The HP-D300 digital dispenser (Tecan) was used to dispense compounds in a combinatorial matrix. […] Cell viability was measured via ATP content using CellTiter-Glo® (Promega).
# (§6) Viability was determined using CellTiter-Glo® (Promega).
# Cell viability was measured via ATP content using CellTiter-Glo® (Promega).
# as §2, with “Proliferation studies” for “Studies”, “MOLM-13, MV4-11 and SKM-1” for “MLL-rearranged”, “cancer cell killing” for “anti-proliferative”, “IC50 values” for “IC50”, “correspond” for “corresponded”
# (§7) These studies were performed to evaluate both the combinatorial effect of compounds on cell killing and the durability of the effect by washing out one of the agents.
# (§8) Compounds evaluated for synergy in the co-treatment phase were tested in a range which was bracketed around the IC50's. The compounds were plated to a 96 well plate in a matrix format which includes increasing concentrations of each drug in the combination in a constant ratio, in addition to the effect of each compound alone in the study. Cells were seeded and grown in the log-linear phase for 3 or 7 days in the cotreatment phase. Maximum and minimum inhibition (DMSO alone) controls were used in each plate to calculate fraction affected (Fa) of a test well. DMSO concentration was kept at 0.1% v/v. The drug combination analysis was performed utilizing the Chou-Talalay method. Synergy was determined using the software package Calcusyn by Biosoft. The combination index (CI) is the term used to describe the level of synergy or antagonism in a given test system. A combination index less than one indicates synergy, and a CI greater than one indicates antagonism.
# (§9) The drug combination analysis was performed using the Chou-Talalay method. Graphs representing values of combination index (CI) versus Fractional effect (Fa) known as Fa-CI plots were generated and synergy was evaluated.
row,Compound,Combination effect with Compound A2 (Table 5)
1,O=C(Nc1ccncc1)c1cc([N+](=O)[O-])ccc1Cl [Compound T0070907],Additive (additive effect by CI equal to 1)
2,Cn1c(=O)n(-c2ccc(C(C)(C)C#N)cc2)c2c3cc(-c4cnc5ccccc5c4)ccc3ncc21 [BEZ235],Additive (additive effect by CI equal to 1)
3,C[C@@H]1COCCN1c1cc(C2(S(C)(=O)=O)CC2)nc(-c2cccc3[nH]ccc23)n1 [AZ20],Synergy (Drug synergy was statistically defined by CI values less than 1)
4,NC1(c2ccc(-c3nc4ccn5c(=O)[nH]nc5c4cc3-c3ccccc3)cc2)CCC1 [MK2206],Additive (additive effect by CI equal to 1)

# Same assay, conditions: MOLM-13 (MLL-AF9); 7 Day Cotreatment Model
row,Compound,Combination effect with Compound A2 (Table 4)
1,O=C(CCCCCCC(=O)Nc1ccccc1)NO [Vorinostat],Additive/Synergy
2,Nc1cccc2c1CN(C1CCC(=O)NC1=O)C2=O (stereo not shown) [Lenalidomide],Combination Benefit
3,S=c1nc[nH]c2nc[nH]c12 [Mercaptopurine],Additive--> Synergy
4,"CC(C)C[C@H](NC(=O)[C@H](Cc1ccccc1)NC(=O)c1cnccn1)B(O)O [Velcade, bortezomib]",Combination Benefit
5,CC1(C)CCC(CN2CCN(c3ccc(C(=O)NS(=O)(=O)c4ccc(NCC5CCOCC5)c([N+](=O)[O-])c4)c(Oc4cnc5[nH]ccc5c4)c3)CC2)=C(c2ccc(Cl)cc2)C1 [ABT-199],Additive--> Synergy

# System: MV4-11 (MLL-AF4) cells
# Experiment: as above
# Format: cell-based, human
# Details: MV4-11; 7 Day Cotreatment (Example 1)
# Procedure: as §1, §2, §3, §4, §5, §6
# as §2, with “Proliferation studies” for “Studies”, “MOLM-13, MV4-11 and SKM-1” for “MLL-rearranged”, “cancer cell killing” for “anti-proliferative”, “IC50 values” for “IC50”, “correspond” for “corresponded”
# as §7, §8
# as §9, with “evaluated. Drug synergy was statistically defined by CI values less than 1, antagonism by CI>1 and additive effect by CI equal to 1.” for “evaluated.”
row,Compound,Combination effect with Compound A2
1,CC(C)(C)c1cc(NC(=O)Nc2ccc(-c3cn4c(n3)sc3cc(OCCN5CCOCC5)ccc34)cc2)no1 [Quizartinib],synergy
2,O=C1c2c(O)ccc(O)c2C(=O)c2c(NCCNCCO)ccc(NCCNCCO)c21 [Mitoxantrone],Synergy (A combination index less than one indicates synergy)

# System: SKM-1 cells
# Experiment: Example 6 combination screen: 300 nM EPZ-5676 pre-treatment, second compound 72 h, ATPLite, IC50 shift
# Format: cell-based, human
# Details: not given
# Procedure: Cells were then equilibrated in incubators for 24 hours before treatment with a second compound. Treated assay plates were incubated with a second compound for 72 hours. After this time, plates were developed for endpoint analysis using ATPLite to measure ATP content, which is used as an indicator of cell viability.
# “N/D” means that IC50 of the second compound could not be determined for both conditions.
row,Compound,Summary of Combination Studies: SKM-1
1,Arsenic Trioxide,2.0

# Same assay, conditions: SKM-1 cells; 300 nM EPZ-5676 pre-treatment (4 + 3 days) vs DMSO, then 2nd compound 72 h; ATPLite; IC50 shift of 2nd compound
row,Compound,Summary of Combination Studies: SKM-1
1,CC(C)C[C@H](NC(=O)CNC(=O)c1cc(Cl)ccc1Cl)B(O)O [MLN2238],Synergy (considered synergistic if the IC50 value of the second compound decreased by 2-fold or more when EPZ-5676 was added as compared to the DMSO control)
2,COCc1c(C(C)C)nc(C(C)C)c(/C=C/[C@@H](O)C[C@@H](O)CC(=O)O)c1-c1ccc(F)cc1 [Cerivastatin Sodium],Synergy (considered synergistic if the IC50 value of the second compound decreased by 2-fold or more when EPZ-5676 was added as compared to the DMSO control)
3,COc1ccc(CCc2nc3cc(-c4c(C)noc4C)ccc3n2C[C@H](C)N2CCOCC2)cc1Cl [SGC-CBP30],Synergy (considered synergistic if the IC50 value of the second compound decreased by 2-fold or more when EPZ-5676 was added as compared to the DMSO control)
4,C[C@H]1C[C@@H]2[C@H]([C@@H](O)C[C@@]3(C)[C@H]2CC[C@]3(O)C(=O)CO)[C@@]2(C)C=CC(=O)C=C12 [Methylprednisolone],Synergy (considered synergistic if the IC50 value of the second compound decreased by 2-fold or more when EPZ-5676 was added as compared to the DMSO control)
5,CCN(CC)CCNC(=O)c1c(C)[nH]c(/C=C2\C(=O)Nc3ccc(F)cc32)c1C [Sunitinib Malate],2.0
6,C=C(c1ccc(C(=O)O)cc1)c1cc2c(cc1C)C(C)(C)CCC2(C)C [Bexarotene],Synergy (considered synergistic if the IC50 value of the second compound decreased by 2-fold or more when EPZ-5676 was added as compared to the DMSO control)
7,N#Cc1c(C2CCNCC2)cc(-c2c(O)cccc2OCC2CC2)nc1N [IKK-2 Inhibitor VIII],Synergy (considered synergistic if the IC50 value of the second compound decreased by 2-fold or more when EPZ-5676 was added as compared to the DMSO control)
8,COc1ccc(-c2ccc3c(N4CCOC[C@@H]4C)nc(N4CCOC[C@@H]4C)nc3n2)cc1CO [AZD 8055],Synergy (considered synergistic if the IC50 value of the second compound decreased by 2-fold or more when EPZ-5676 was added as compared to the DMSO control)
9,C#Cc1cccc(Nc2ncnc3cc(OCCOC)c(OCCOC)cc23)c1 [Erlotinib Hydrochloride],Synergy (considered synergistic if the IC50 value of the second compound decreased by 2-fold or more when EPZ-5676 was added as compared to the DMSO control)
10,CC1=C(/C=C/C(C)=C/C=C/C(C)=C/C(=O)O)C(C)(C)CCC1 [Tretinoin],Synergy (considered synergistic if the IC50 value of the second compound decreased by 2-fold or more when EPZ-5676 was added as compared to the DMSO control)
11,C=C[C@@]1(C)CC(=O)[C@]2(O)[C@@]3(C)[C@@H](O)CCC(C)(C)[C@@H]3[C@H](OC(=O)CCN(C)C)[C@H](OC(C)=O)[C@@]2(C)O1.Cl [NKH 477],Synergy (considered synergistic if the IC50 value of the second compound decreased by 2-fold or more when EPZ-5676 was added as compared to the DMSO control)
12,Cc1sc2c(c1C)C(c1ccc(Cl)cc1)=N[C@@H](CC(=O)Nc1ccc(O)cc1)c1nnc(C)n1-2 [OTX015],Synergy (considered synergistic if the IC50 value of the second compound decreased by 2-fold or more when EPZ-5676 was added as compared to the DMSO control)
13,CN(C)C(=O)c1cc2cnc(Nc3ccc(N4CCNCC4)cn3)nc2n1C1CCCC1 [LEE011],Synergy (considered synergistic if the IC50 value of the second compound decreased by 2-fold or more when EPZ-5676 was added as compared to the DMSO control)
14,CS(=O)(=O)N1CCN(Cc2cc3nc(-c4cccc5[nH]ncc45)nc(N4CCOCC4)c3s2)CC1 [GDC-0941],Synergy (considered synergistic if the IC50 value of the second compound decreased by 2-fold or more when EPZ-5676 was added as compared to the DMSO control)
15,NC1(c2ccc(-c3nc4ccn5c(=O)[nH]nc5c4cc3-c3ccccc3)cc2)CCC1 [MK2206],Synergy (considered synergistic if the IC50 value of the second compound decreased by 2-fold or more when EPZ-5676 was added as compared to the DMSO control)
16,O=C(Nc1cccc(Nc2ncc(Br)c(NCCc3cnc[nH]3)n2)c1)N1CCCC1 [BX-912],Synergy (considered synergistic if the IC50 value of the second compound decreased by 2-fold or more when EPZ-5676 was added as compared to the DMSO control)
17,CN(C)CC[C@H](CSc1ccccc1)Nc1ccc(S(=O)(=O)NC(=O)c2ccc(N3CCN(Cc4ccccc4-c4ccc(Cl)cc4)CC3)cc2)cc1[N+](=O)[O-] [ABT-737],Synergy (considered synergistic if the IC50 value of the second compound decreased by 2-fold or more when EPZ-5676 was added as compared to the DMSO control)
18,COc1ccc(Cc2nccc3cc(OC)c(OC)cc23)cc1OC [Papaverine Hydrochloride],Synergy (considered synergistic if the IC50 value of the second compound decreased by 2-fold or more when EPZ-5676 was added as compared to the DMSO control)
19,CC(C)CC(=O)Nc1[nH]nc2c1CN(C(=O)C1CCN(C)CC1)C2(C)C [PHA-793887],Synergy (considered synergistic if the IC50 value of the second compound decreased by 2-fold or more when EPZ-5676 was added as compared to the DMSO control)

# From patent US20190083521A1, “COMBINATION THERAPY FOR TREATING CANCER” (Epizyme, Inc., priority 2014, published 2019)
